In patent publication US11000033B2, “Ketone or oxime compound, and herbicide” (NISSAN CHEMICAL CORPORATION, priority 2014, dated 2021):

Tests used:
Type in all cases: in vivo
transplanted rice plant = experiment: Test Example 1: effect on crop, application before weed generation in submerged conditions (symbol a); settings: application herbicide amount 320 g/ha
Outline: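 Alluvial soil pots flooded to 4 cm water, sown with Echinochloa oryzacola, Scirpus juncoides and Monochoria vaginalis, then transplanted with 2.5 leaf stage rice seedlings; pre-emergence application. Greenhouse 25° C. to 30° C.; scored 0–5 by herbicidal ratio 3 weeks after application.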

[1] = tested on: Echinochloa oryzacola Vasing.; experiment: Test Example 2: herbicidal activity, application during weed generation in submerged conditions (symbol A); settings: Table 23; application herbicide amount 320 g/ha; grade 0-5 by criteria of Test Example 1
Outline: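 Each pot contained alluvial soil under 4 cm of water with seeds of all three weeds sown together. Following growth at 25° C. to 30° C. to the one- to two-leaf stage, the floodwater received diluted emulsion at a predetermined amount; visual assessment followed at 3 weeks.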

Cyperus difformis = experiment: Test Example 3: herbicidal effect by foliage application, Wagner pot (symbol E); settings: application herbicide amount 320 g/ha
Outline: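 Seeds sown in alluvial soil kept under 0.1–0.5 cm water, greenhouse 25–30 °C; 14 d growth. Leaves treated by small sprayer with water-diluted emulsion at a predetermined rate. Effect graded by set scale, 3 weeks.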

Digitaria ciliaris = experiment: Test Example 4: herbicidal effect by soil treatment (symbol F); settings: application herbicide amount 320 g/ha
Outline: (§1)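 Seeds were sown in sterilized diluvial soil, covered with about 1.5 cm of soil, and the soil surface was sprayed with a water-diluted emulsion of the compound at a predetermined rate. Plants grew in a greenhouse at 25° C. to 30° C.; effects were scored visually 3 weeks after application.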

Avena fatua = experiment: Test Example 4: herbicidal effect by soil treatment (symbol I); settings: application herbicide amount 320 g/ha
Outline: as §1

soybean = experiment: Test Example 4: effect on crop by soil treatment (symbol d); settings: application herbicide amount 320 g/ha
Outline: (§2)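 Steps: fill box with sterilized diluvial soil; sow seed spot-like; cover with ~1.5 cm soil; grow in greenhouse (25° C. to 30° C.).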

rice = experiment: Test Example 4: effect on crop by soil treatment (symbol b); settings: application herbicide amount 320 g/ha
Outline: as §2

wheat = experiment: Test Example 4: effect on crop by soil treatment (symbol e); settings: application herbicide amount 320 g/ha
Outline: as §2

rapeseed = experiment: Test Example 4: effect on crop by soil treatment (symbol g); settings: application herbicide amount 320 g/ha
Outline: as §2

Stellaria media = experiment: Test Example 5: herbicidal effect by foliage application, plastic box (symbol P); settings: 320 g/ha, 3 weeks after application
Outline: (§3)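 Seeds were sown in sterilized diluvial soil, covered with about 1.5 cm of soil and grown 14 days in a greenhouse at 25° C. to 30° C. An emulsifiable formulation diluted in water to a set rate was sprayed over foliage, and injury was scored 3 weeks later.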

Galium spurium = experiment: Test Example 5: herbicidal effect by foliage application, plastic box (symbol Q); settings: 320 g/ha, 3 weeks after application
Outline: as §3

corn = experiment: Test Example 5: effect on crop by foliage application, plastic box (symbol c); settings: 320 g/ha, 3 weeks after application
Outline: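 A greenhouse held between 25° C. and 30° C. was used to grow plants sown spot-wise, beneath ~1.5 cm of soil, in boxes of sterilized diluvial soil.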

CCON=C(C)CC1CC(O)=C(c2c(C)cc(C)cc2C)C1=O (stereo not drawn) [1-003]
Effect grade on crop, a: transplanted rice plant (transplanted rice plant): 5 (Herbicidal ratio of 90% or more (almost completely withered))
Herbicidal effect grade, A: Echinochloa oryzacola Vasing. [1]: 5 (Herbicidal ratio of 90% or more (almost completely withered))
herbicidal effect on E, grade 0-5 (Cyperus difformis): 5 (Herbicidal ratio of 90% or more (almost completely withered))
F (Digitaria ciliaris) herbicidal effect grade (Digitaria ciliaris): 5 (Herbicidal ratio of 90% or more (almost completely withered))
I (Avena fatua) herbicidal effect grade (Avena fatua): 4 (Herbicidal ratio of 70% or higher and lower than 90%)
d (soybean) effect on crop grade (soybean): 3 (Herbicidal ratio of 40% or higher and lower than 70%)
b (directly sowed rice plant) effect on crop grade (rice): 5 (Herbicidal ratio of 90% or more (almost completely withered))
e (wheat) effect on crop grade (wheat): 5 (Herbicidal ratio of 90% or more (almost completely withered))
g (rapeseed) effect on crop grade (rapeseed): 4 (Herbicidal ratio of 70% or higher and lower than 90%)
P: Stellaria media, herbicidal effect grade (Stellaria media): 2 (Herbicidal ratio of 20% or higher and lower than 40%)
Q: Galium spurium, herbicidal effect grade (Galium spurium): 3 (Herbicidal ratio of 40% or higher and lower than 70%)
c: corn, effect on crop grade (corn): 5 (Herbicidal ratio of 90% or more (almost completely withered))

CC(CC1CC(O)=C(c2c(C)cc(C)cc2C)C1=O)=NOCC1CC1 (stereo not drawn) [1-024]
Effect grade on crop, a: transplanted rice plant (transplanted rice plant): 5 (Herbicidal ratio of 90% or more (almost completely withered))
Herbicidal effect grade, A: Echinochloa oryzacola Vasing. [1]: 5 (Herbicidal ratio of 90% or more (almost completely withered))
herbicidal effect on E, grade 0-5 (Cyperus difformis): 5 (Herbicidal ratio of 90% or more (almost completely withered))
F (Digitaria ciliaris) herbicidal effect grade (Digitaria ciliaris): 5 (Herbicidal ratio of 90% or more (almost completely withered))
I (Avena fatua) herbicidal effect grade (Avena fatua): 4 (Herbicidal ratio of 70% or higher and lower than 90%)
d (soybean) effect on crop grade (soybean): 1 (Herbicidal ratio of 5% or higher and lower than 20%)
b (directly sowed rice plant) effect on crop grade (rice): 5 (Herbicidal ratio of 90% or more (almost completely withered))
e (wheat) effect on crop grade (wheat): 4 (Herbicidal ratio of 70% or higher and lower than 90%)
g (rapeseed) effect on crop grade (rapeseed): 3 (Herbicidal ratio of 40% or higher and lower than 70%)
P: Stellaria media, herbicidal effect grade (Stellaria media): 3 (Herbicidal ratio of 40% or higher and lower than 70%)
Q: Galium spurium, herbicidal effect grade (Galium spurium): 3 (Herbicidal ratio of 40% or higher and lower than 70%)
c: corn, effect on crop grade (corn): 5 (Herbicidal ratio of 90% or more (almost completely withered))

CC(CC1CC(O)=C(c2c(C)cc(C)cc2C)C1=O)=NOCC(=O)N1CCOCC1 (stereo not drawn) [1-025]
Effect grade on crop, a: transplanted rice plant (transplanted rice plant): 3 (Herbicidal ratio of 40% or higher and lower than 70%)
Herbicidal effect grade, A: Echinochloa oryzacola Vasing. [1]: 1 (Herbicidal ratio of 5% or higher and lower than 20%)
herbicidal effect on E, grade 0-5 (Cyperus difformis): 5 (Herbicidal ratio of 90% or more (almost completely withered))
F (Digitaria ciliaris) herbicidal effect grade (Digitaria ciliaris): 5 (Herbicidal ratio of 90% or more (almost completely withered))
I (Avena fatua) herbicidal effect grade (Avena fatua): 3 (Herbicidal ratio of 40% or higher and lower than 70%)
d (soybean) effect on crop grade (soybean): 0 (Herbicidal ratio of 5% or lower (almost no effect))
b (directly sowed rice plant) effect on crop grade (rice): 5 (Herbicidal ratio of 90% or more (almost completely withered))
e (wheat) effect on crop grade (wheat): 0 (Herbicidal ratio of 5% or lower (almost no effect))
g (rapeseed) effect on crop grade (rapeseed): 4 (Herbicidal ratio of 70% or higher and lower than 90%)
P: Stellaria media, herbicidal effect grade (Stellaria media): 4 (Herbicidal ratio of 70% or higher and lower than 90%)
Q: Galium spurium, herbicidal effect grade (Galium spurium): 4 (Herbicidal ratio of 70% or higher and lower than 90%)
c: corn, effect on crop grade (corn): 3 (Herbicidal ratio of 40% or higher and lower than 70%)

CC(CC1CC(O)=C(c2c(C)cc(C)cc2C)C1=O)=NOCC(C)O (stereo not drawn) [1-027]
Effect grade on crop, a: transplanted rice plant (transplanted rice plant): 4 (Herbicidal ratio of 70% or higher and lower than 90%)
Herbicidal effect grade, A: Echinochloa oryzacola Vasing. [1]: 4 (Herbicidal ratio of 70% or higher and lower than 90%)
herbicidal effect on E, grade 0-5 (Cyperus difformis): 5 (Herbicidal ratio of 90% or more (almost completely withered))
F (Digitaria ciliaris) herbicidal effect grade (Digitaria ciliaris): 5 (Herbicidal ratio of 90% or more (almost completely withered))
I (Avena fatua) herbicidal effect grade (Avena fatua): 4 (Herbicidal ratio of 70% or higher and lower than 90%)
d (soybean) effect on crop grade (soybean): 0 (Herbicidal ratio of 5% or lower (almost no effect))
b (directly sowed rice plant) effect on crop grade (rice): 5 (Herbicidal ratio of 90% or more (almost completely withered))
e (wheat) effect on crop grade (wheat): 3 (Herbicidal ratio of 40% or higher and lower than 70%)
g (rapeseed) effect on crop grade (rapeseed): 4 (Herbicidal ratio of 70% or higher and lower than 90%)
P: Stellaria media, herbicidal effect grade (Stellaria media): 1 (Herbicidal ratio of 5% or higher and lower than 20%)
Q: Galium spurium, herbicidal effect grade (Galium spurium): 3 (Herbicidal ratio of 40% or higher and lower than 70%)
c: corn, effect on crop grade (corn): 5 (Herbicidal ratio of 90% or more (almost completely withered))

CC(CC1CC(O)=C(c2c(C)cc(C)cc2C)C1=O)=NOCC(F)(F)F (stereo not drawn) [1-028]
Effect grade on crop, a: transplanted rice plant (transplanted rice plant): 5 (Herbicidal ratio of 90% or more (almost completely withered))
Herbicidal effect grade, A: Echinochloa oryzacola Vasing. [1]: 5 (Herbicidal ratio of 90% or more (almost completely withered))
herbicidal effect on E, grade 0-5 (Cyperus difformis): 5 (Herbicidal ratio of 90% or more (almost completely withered))
F (Digitaria ciliaris) herbicidal effect grade (Digitaria ciliaris): 5 (Herbicidal ratio of 90% or more (almost completely withered))
I (Avena fatua) herbicidal effect grade (Avena fatua): 4 (Herbicidal ratio of 70% or higher and lower than 90%)
d (soybean) effect on crop grade (soybean): 0 (Herbicidal ratio of 5% or lower (almost no effect))
b (directly sowed rice plant) effect on crop grade (rice): 5 (Herbicidal ratio of 90% or more (almost completely withered))
e (wheat) effect on crop grade (wheat): 4 (Herbicidal ratio of 70% or higher and lower than 90%)
g (rapeseed) effect on crop grade (rapeseed): 4 (Herbicidal ratio of 70% or higher and lower than 90%)
P: Stellaria media, herbicidal effect grade (Stellaria media): 3 (Herbicidal ratio of 40% or higher and lower than 70%)
Q: Galium spurium, herbicidal effect grade (Galium spurium): 3 (Herbicidal ratio of 40% or higher and lower than 70%)
c: corn, effect on crop grade (corn): 4 (Herbicidal ratio of 70% or higher and lower than 90%)

CSCCON=C(C)CC1CC(O)=C(c2c(C)cc(C)cc2C)C1=O (stereo not drawn) [1-029]
Effect grade on crop, a: transplanted rice plant (transplanted rice plant): 5 (Herbicidal ratio of 90% or more (almost completely withered))
Herbicidal effect grade, A: Echinochloa oryzacola Vasing. [1]: 4 (Herbicidal ratio of 70% or higher and lower than 90%)
herbicidal effect on E, grade 0-5 (Cyperus difformis): 4 (Herbicidal ratio of 70% or higher and lower than 90%)
F (Digitaria ciliaris) herbicidal effect grade (Digitaria ciliaris): 5 (Herbicidal ratio of 90% or more (almost completely withered))
I (Avena fatua) herbicidal effect grade (Avena fatua): 1 (Herbicidal ratio of 5% or higher and lower than 20%)
d (soybean) effect on crop grade (soybean): 0 (Herbicidal ratio of 5% or lower (almost no effect))
b (directly sowed rice plant) effect on crop grade (rice): 5 (Herbicidal ratio of 90% or more (almost completely withered))
e (wheat) effect on crop grade (wheat): 0 (Herbicidal ratio of 5% or lower (almost no effect))
g (rapeseed) effect on crop grade (rapeseed): 3 (Herbicidal ratio of 40% or higher and lower than 70%)
P: Stellaria media, herbicidal effect grade (Stellaria media): 3 (Herbicidal ratio of 40% or higher and lower than 70%)
Q: Galium spurium, herbicidal effect grade (Galium spurium): 3 (Herbicidal ratio of 40% or higher and lower than 70%)
c: corn, effect on crop grade (corn): 3 (Herbicidal ratio of 40% or higher and lower than 70%)

CON=CC(C)(C)C1CC(O)=C(c2c(C)cc(C)cc2C)C1=O (stereo not drawn) [1-030]
Effect grade on crop, a: transplanted rice plant (transplanted rice plant): 1 (Herbicidal ratio of 5% or higher and lower than 20%)
Herbicidal effect grade, A: Echinochloa oryzacola Vasing. [1]: 2 (Herbicidal ratio of 20% or higher and lower than 40%)
herbicidal effect on E, grade 0-5 (Cyperus difformis): 3 (Herbicidal ratio of 40% or higher and lower than 70%)
F (Digitaria ciliaris) herbicidal effect grade (Digitaria ciliaris): 3 (Herbicidal ratio of 40% or higher and lower than 70%)
I (Avena fatua) herbicidal effect grade (Avena fatua): 0 (Herbicidal ratio of 5% or lower (almost no effect))
d (soybean) effect on crop grade (soybean): 0 (Herbicidal ratio of 5% or lower (almost no effect))
b (directly sowed rice plant) effect on crop grade (rice): 4 (Herbicidal ratio of 70% or higher and lower than 90%)
e (wheat) effect on crop grade (wheat): 0 (Herbicidal ratio of 5% or lower (almost no effect))
g (rapeseed) effect on crop grade (rapeseed): 0 (Herbicidal ratio of 5% or lower (almost no effect))
P: Stellaria media, herbicidal effect grade (Stellaria media): 0 (Herbicidal ratio of 5% or lower (almost no effect))
Q: Galium spurium, herbicidal effect grade (Galium spurium): 0 (Herbicidal ratio of 5% or lower (almost no effect))
c: corn, effect on crop grade (corn): 1 (Herbicidal ratio of 5% or higher and lower than 20%)
